Test [1] concerns the target T1, Polyunsaturated fatty acid 5-lipoxygenase (Homo sapiens, UniProt P09917).
T1 sequence (P09917 whole entry): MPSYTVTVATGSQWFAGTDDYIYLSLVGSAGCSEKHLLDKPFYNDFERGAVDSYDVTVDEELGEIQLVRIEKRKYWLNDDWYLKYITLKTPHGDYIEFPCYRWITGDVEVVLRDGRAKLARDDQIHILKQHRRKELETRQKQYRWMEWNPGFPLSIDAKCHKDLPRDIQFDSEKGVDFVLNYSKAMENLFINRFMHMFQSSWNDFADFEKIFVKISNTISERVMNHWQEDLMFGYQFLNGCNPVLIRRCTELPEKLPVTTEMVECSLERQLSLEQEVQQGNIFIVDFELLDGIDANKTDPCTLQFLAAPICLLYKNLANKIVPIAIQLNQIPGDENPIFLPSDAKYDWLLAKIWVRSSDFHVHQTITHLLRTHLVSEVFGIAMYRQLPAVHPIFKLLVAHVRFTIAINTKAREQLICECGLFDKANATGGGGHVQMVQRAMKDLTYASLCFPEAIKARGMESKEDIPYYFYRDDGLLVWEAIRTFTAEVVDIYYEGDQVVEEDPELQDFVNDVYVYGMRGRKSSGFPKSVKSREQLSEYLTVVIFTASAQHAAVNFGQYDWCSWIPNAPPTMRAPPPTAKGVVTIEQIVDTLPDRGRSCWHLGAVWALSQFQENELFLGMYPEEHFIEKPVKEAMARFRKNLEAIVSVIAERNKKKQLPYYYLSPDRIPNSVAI
As to the kind of experiment: Inhibition of 5-lipoxygenase in human polymorphonuclear leukocytes assessed as reduction in A23187 and AA-stimulated 5-LO product formation preincubated for 15 mins prior stimulation measured after 10 mins by HPLC analysis. It is filed as cell-based.

Test [2] addresses T1, Polyunsaturated fatty acid 5-lipoxygenase. As to the kind of experiment: Inhibition of 5-lipoxygenase in S100 cell free fraction of human polymorphonuclear leukocytes assessed as reduction in 5-LO product formation preincubated for 15 mins measured after 10 mins by HPLC analysis. It is filed as cell-based.

From ChEMBL document CHEMBL1955753, “SAR-study on a new class of imidazo[1,2-a]pyridine-based inhibitors of 5-lipoxygenase” (Bioorg Med Chem Lett, 2012) come the findings set out here.

In general, pIC50 refers to the negative decadic logarithm of the IC50, by convention in mol/L.

SMILES strings stand for the structures. pIC50: −log10 of the molar value.

Regarding `Cc1ccc(-c2nc3cc(C)ccn3c2NC2CCCC2)cc1`, the pIC50 in test [1] was 6.05.
As to `CN(C)c1ccc(-c2nc3ccc(Cl)cc3n2CC2CCCCC2)cc1`, the pIC50 in test [1] was 6.30; in test [2], less than 5.00.
Take `Cc1ccc2nc(-c3ccc(N(C)C)cc3)c(NC3CCCCC3)n2c1`: the pIC50 in test [1] is 6.22.
For `Cc1ccc2nc(-c3ccncc3)c(NC3CCCCC3)n2c1`, the pIC50 in test [1] was 5.14; in test [2], 5.11.
For `CCOc1ccc2[nH]c(=O)c(-c3nc4ccc(C)cn4c3NC3CCCCC3)cc2c1` the same measures were 5.74 and 4.67.
`Cc1ccc2nc(-c3ccc([N+](=O)[O-])cc3)c(NC3CCCCC3)n2c1`: the figures for the negative-log IC50 (pIC50) in test [1] and in test [2] were 5.82 and less than 4.52, respectively.
For the compound `Clc1ccc2nc(-c3ccc(N4CCOCC4)cc3)n(CC3CCCCC3)c2c1`, the pIC50 in test [1] was 5.92; in test [2] it was 5.24.
